Paper PMC11969024, “Development of chemokine network inhibitors using combinatorial saturation mutagenesis” (Communications Biology, 2025)

Test system: activated CD8+T-cells (ATC)
Assay: Activated T-cell (ATC) migration induced by individual chemokines, inhibition by peptide
Assay type: cell-based, human
Settings: for inhibition of CCL19, CCL21, CXCL9, and CXCL11-induced migration of ATCs compared to parental HD2: peptide 10 uM, chemokines at EC80, Dunnett's test
Procedure: Cell lines were confirmed mycoplasma free by monthly testing using a MycoAlert^TM kit (LT07-118, Lonza) following the manufacturer’s instructions. THP1 cells: THP1 cells (ECACC 88081201, a human monocyte leukemia cell line[51]) were obtained from ECACC and were cultured in T175 flasks at 0.3-1 × 10^6 cells/mL in Roswell Park Memorial Institute (RPMI) 1640 medium (R0883, Sigma) with 10% FBS (F9665, Sigma) and 5mM L-glutamine (G7513, Sigma), 37 °C, 5% CO2. J:CXCR1 cells: The J:CXCR1 cell line was cultured in the same manner as THP1 cells at 0.15-1 × 10^6 cells per mL[37]. Activated T-cells: T-cells were isolated, activated and expanded as follows. Briefly, density gradient centrifugation using Lymphoprep^TM density gradient medium (07801, […] Technologies) and a SepMate^TM isolation tube (85450, […] Technologies) was used to isolate peripheral blood mononuclear cells from human leukocyte cones. Two rounds of purification using a human CD8 + T-cell isolation kit (480011, BioLegend) were used to isolate CD8 + T-cells from peripheral blood mononuclear cells. Activation of CD8 + T-cells was performed in ImmunoCult^TM-XF T-cell expansion medium (10982, […] Technologies) with an anti-CD3/anti-CD28 T-cell activator at 25 μl/ml (10991, […] Technologies), supplemented with 10 ng/ml recombinant human IL-2 (200-02, PeproTech) with 1% penicillin/streptomycin. T-cells were passaged every 2–3 days in TexMACS medium (130-097-196, Miltenyi Biotec), supplemented with 10 ng/ml human IL-2 (200-05-250, Peprotech) and incubated at 37 °C in 5% CO2. CD8 + T-cells were frozen at day 10-13 after initial activation, at 20×10^6 cell/ml in TexMACS medium supplemented with 10% DMSO (D2650, Sigma) in liquid nitrogen. Activated CD8^+ T-cells were recovered in TexMACs medium at 0.3 × 10^6 cell/ml and incubated at 37 °C in 5% CO2, 24 h prior to use. For buffy coat experiments a mixture of primary human monocytes, granulocytes and lymphocytes was isolated from human buffy coat. Briefly, RBCs were sedimented in HetaSep (07806, […] Technologies) with 1 mL of HetaSep per 5 mL of blood for 15 min at 37 °C. The buffy coat layer was collected from the top and washed in 50 ml MACS buffer (PBS (P4417, Sigma), 0.5% BSA (A7030, Sigma), 0.075% EDTA (E5134, Sigma), pH 7.2), by centrifugation at 2000 g for 10 min at room temperature. The pellet was resuspended in 10 mL of 1x RBC lysis solution (130-094-183, Miltenyi Biotec) and lysed for 10 min at room temperature. The cells were then washed in MACS buffer twice as above. The final pellet was resuspended in 1 mL of MACS buffer per 5 mL of initial blood volume and counted using cell size FSC-H/SSC-H parameters with gate settings previously defined by immunostaining (see below). The leukocytes were then resuspended in assay buffer for cell migration and used within 30 min of isolation.
Cell counts were determined using an ATTUNE NxT Flow Cytometer with Cytkick autosampler (ThermoFisher), based on cell size parameters FSC-H/SSC-H, with previously defined gate settings. FSC-H/SSC-H gate settings for primary white blood cells from buffy coats were determined using flow cytometry to establish the granulocyte, monocyte and lymphocyte populations (Supplementary Fig. 13). Briefly, cells were labelled with anti-CD3 (Miltenyi Biotec, 130-113-135) to identify the T cell population, anti-CD14 (Miltenyi Biotec, 130-110-578) to identify the monocyte population, and with anti-CD16 (Miltenyi Biotec, 130-113-951) to identify the granulocyte population. Negative control cells were labelled with anti-human IgG1 (Miltenyi Biotec, 130-113-434). All antibodies were allophycocyanin (APC) conjugated. 100,000 white blood cells were added to Eppendorf tubes and centrifuged at 300 g for 3 min. The supernatant was discarded, and the cells resuspended in 98 µL of MACS buffer (1× PBS, 2 mM EDTA and 0.5% BSA, sterile filtered). 2 µl of antibody was added to the cells. […]

Sequence	inhibition of CCL19, CCL21, CXCL9, and CXCL11-induced migration of ATCs compared to parental HD2	inhibition of chemokines e.g. CCL19, CCL21 and CXCL11 (ATC migration, statement of the discussion)
EEDDYWAYAPLTCYFT [HD2T6W, HD2 point mutant]	significant improvement in inhibition	–
EEDDWTAYAPLTCYFT [HD2Y5W, HD2 point mutant]	significant improvement in inhibition	de novo inhibition
